system: B16; assay: Cytotoxicity against Mus musculus (mouse) B16 cells after 3 days by MTT assay; format: functional, cell-based; conditions: B16, 72 h

COc1ccc(OC)c(C(=O)/C=C/c2ccc([N+](=O)[O-])cc2)c1 and COc1ccc(OC)c(C(=O)/C=C/c2ccc(N)cc2)c1 cannot be ordered by IC50: over 100 µM for the first, over 100 µM for the second.

Going from COc1ccc(OC)c(/C=C/C(=O)c2ccc(OC)c(N)c2)c1 to COc1ccc(OC)c(/C=C/C(=O)c2ccc(OC)c([N+](=O)[O-])c2)c1, the IC50 rises from 5.6 µM to 13 µM (2.3-fold).

COc1ccc(C(=O)/C=C/c2ccccc2)cc1[N+](=O)[O-] and COc1ccc(C(=O)/C=C/c2ccccc2)cc1N cannot be ordered by IC50: over 100 µM for the first, over 100 µM for the second.

COc1ccc(/C=C/C(=O)c2ccc(OC)c([N+](=O)[O-])c2)cc1 and COc1cccc(/C=C/C(=O)c2ccc(OC)c([N+](=O)[O-])c2)c1 cannot be ordered by IC50: over 100 µM for the first, over 100 µM for the second.

COc1ccc(/C=C/C(=O)c2ccc(OC)c(N)c2)cc1 and COc1cccc(/C=C/C(=O)c2ccc(OC)c(N)c2)c1 are within 1.5-fold of each other in IC50: 43 µM for the first, 33 µM for the second.

First: COc1cc(/C=C/C(=O)c2ccc(OC)c([N+](=O)[O-])c2)cc(OC)c1
Second: COc1cc(/C=C/C(=O)c2ccc(OC)c(N)c2)cc(OC)c1
The IC50 of the first is 1.6-fold lower: 5.6 µM for the first, 8.8 µM for the second. The first is the more potent here.

First: COc1ccc(/C=C/C(=O)c2ccc(OC)c([N+](=O)[O-])c2)cc1OC
Second: COc1ccc(C(=O)/C=C/c2ccc(OC)c(OC)c2)cc1N
The IC50 of the first is higher: over 100 µM for the first, 18 µM for the second. The second is the more potent here.

COc1ccc(C(=O)/C=C/c2cc(OC)c(OC)c(OC)c2)cc1[N+](=O)[O-] and COc1ccc(/C=C/C(=O)c2cc(OC)c(OC)c(OC)c2)cc1[N+](=O)[O-] cannot be ordered by IC50: over 100 µM for the first, over 100 µM for the second.

Going from COc1ccc(C(=O)/C=C/c2cc(OC)c(OC)c(OC)c2)cc1N to COc1ccc(/C=C/C(=O)c2cc(OC)c(OC)c(OC)c2)cc1N, the IC50 falls from 67 µM to 0.24 µM (280-fold). The second is the more potent here.

First: COc1ccc(OC)c(C(=O)/C=C/c2ccc(OC)c([N+](=O)[O-])c2)c1
Second: COc1ccc(OC)c(C(=O)/C=C/c2ccc(OC)c(N)c2)c1
The IC50 of the first is higher: over 100 µM for the first, 2 µM for the second. The second is the more potent here.

Compared with COc1cc(C(=O)/C=C/c2ccc(N)cc2)cc(OC)c1OC, COc1cc(C(=O)/C=C/c2ccc([N+](=O)[O-])cc2)cc(OC)c1OC is higher in IC50: 30 µM for the first, over 100 µM for the second.

system: HeLa; assay: Cytotoxicity against Homo sapiens (human) HeLa cells; format: functional, cell-based; conditions: not given

In order of falling IC50:
1. COc1cc(C(=O)/C=C/c2ccc([N+](=O)[O-])cc2)cc(OC)c1OC  73 µM
2. COc1cc(C(=O)/C=C/c2ccc(N)cc2)cc(OC)c1OC  0.48 µM
